Experiments:
[1] = target: T1, follicle-stimulating hormone (FSH) receptor (Rattus norvegicus, UniProt P20395); assay: Rat granulosa EC50 FSH (Assay B); format: cell-based; conditions: rat granulosa cells; read-out: Assay B: Rat granulosa EC50 FSH
T1 construct: endogenous in cells; host or cells: primary rat granulosa cells
T1 sequence (P20395 18-692): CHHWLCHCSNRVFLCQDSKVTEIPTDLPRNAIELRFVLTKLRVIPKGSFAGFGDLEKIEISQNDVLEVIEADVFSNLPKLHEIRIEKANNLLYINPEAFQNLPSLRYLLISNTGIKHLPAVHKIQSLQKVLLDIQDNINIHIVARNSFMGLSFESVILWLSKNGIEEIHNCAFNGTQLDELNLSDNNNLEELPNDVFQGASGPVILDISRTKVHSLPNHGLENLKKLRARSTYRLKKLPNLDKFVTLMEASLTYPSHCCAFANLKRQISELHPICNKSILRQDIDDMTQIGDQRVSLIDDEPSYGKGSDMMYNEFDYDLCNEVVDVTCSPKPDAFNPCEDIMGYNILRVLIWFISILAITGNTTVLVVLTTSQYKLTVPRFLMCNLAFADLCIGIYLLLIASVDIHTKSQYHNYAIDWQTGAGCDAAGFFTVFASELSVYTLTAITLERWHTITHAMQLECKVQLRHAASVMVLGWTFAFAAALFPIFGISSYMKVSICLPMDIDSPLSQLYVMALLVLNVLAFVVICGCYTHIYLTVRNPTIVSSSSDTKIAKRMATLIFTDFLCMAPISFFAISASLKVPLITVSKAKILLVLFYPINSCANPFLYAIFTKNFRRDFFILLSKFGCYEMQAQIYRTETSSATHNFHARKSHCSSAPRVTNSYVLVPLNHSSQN
Description: Rat Granulosa EC50 FSH (Assay B)
The assay was performed pursuant to the teaching of Yanofsky et al. (2006) Allosteric activation of the follicle-stimulating hormone (FSH) receptor by selective, nonpeptide agonists (JBC 281(19): 13226-13233, which is incorporated by reference in the disclosure of the invention).

FSHR = target: T2, FSHR (Homo sapiens, UniProt P23945); assay: EC50 of cyclic AMP production in CHO FSHR cells + EC20 FSH (Assay A); format: cell-based; conditions: CHO FSHR cells + EC20 FSH, cAMP HTRF; read-out: Assay A: EC50 of cyclic AMP production
T2 construct: expressed in transfected cells; host or cells: CHO (Cho-FSHR-LUC-1-1-43)
T2 sequence (P23945 18-695): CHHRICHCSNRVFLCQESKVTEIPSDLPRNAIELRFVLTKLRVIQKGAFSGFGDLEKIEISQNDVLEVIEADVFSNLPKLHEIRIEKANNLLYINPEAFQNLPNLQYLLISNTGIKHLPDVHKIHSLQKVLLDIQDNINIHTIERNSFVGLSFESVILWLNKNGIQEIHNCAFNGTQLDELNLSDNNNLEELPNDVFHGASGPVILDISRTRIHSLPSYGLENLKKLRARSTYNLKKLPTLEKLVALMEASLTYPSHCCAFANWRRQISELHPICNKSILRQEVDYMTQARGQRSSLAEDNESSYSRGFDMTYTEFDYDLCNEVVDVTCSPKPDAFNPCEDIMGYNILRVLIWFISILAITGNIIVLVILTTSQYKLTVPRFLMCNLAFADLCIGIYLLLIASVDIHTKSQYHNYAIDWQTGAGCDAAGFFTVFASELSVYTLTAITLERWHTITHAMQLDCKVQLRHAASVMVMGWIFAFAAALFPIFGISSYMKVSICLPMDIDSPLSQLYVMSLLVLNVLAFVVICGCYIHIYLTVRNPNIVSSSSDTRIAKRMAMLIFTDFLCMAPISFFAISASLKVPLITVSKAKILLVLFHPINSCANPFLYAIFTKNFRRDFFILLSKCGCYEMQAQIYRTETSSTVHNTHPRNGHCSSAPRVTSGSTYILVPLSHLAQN
Procedure, shortened: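 Cho-FSHR-LUC cells were exposed to compound dilution series with EC20 FSH ([…]) and 200 μM IBMX for 1 h at 37° C. cAMP was read by HTRF (665/620 nm ratio). Effects are percent of the maximal FSH standard response.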

SMILES | EC50 [1] [nM] | EC50 (FSHR) [nM]
COc1cc2c(cc1C1CCOC1)-c1c(c(C(=O)N(C)C(C)(C)C)nn1-c1ccsc1)CO2 (centres unmarked) [Compound 194, 7-Methoxy-8-(tetrahydro-furan-3-yl)-1-thiophen-3-yl-1,4-dihydro-chromeno[4,3-c]pyrazole-3-carboxylic Acid tert-butyl-methyl-amide] | 100 to 1000 | < 100
[2H]C([2H])([2H])OCCC1(N(C(=O)c2nn(-c3ccsc3)c3c2COc2cc(OC)c(-c4ccn(C)c4)cc2-3)C([2H])([2H])[2H])COC1 [Compound 198] | < 100 | < 100
[2H]C([2H])([2H])OCC1(N(C(=O)c2nn(-c3ccsc3)c3c2COc2cc(OC)c(S(=O)(=O)C(C)C)cc2-3)C([2H])([2H])[2H])COC1 [Compound 200] | > 5000 | < 100
COc1cc2c(cc1C1CCCO1)-c1c(c(C(=O)N(C)C(C)(C)C)nn1-c1ccsc1)CO2 (centres unmarked) [Compound 201, 7-Methoxy-8-(tetrahydro-furan-2-yl)-1-thiophen-3-yl-1,4-dihydro-chromeno[4,3-c]pyrazole-3-carboxylic Acid tert-butyl-methyl-amide] | 1000 to 5000 | 100 to 1000
COc1cc2c(cc1-c1cnn(CCN3CCOCC3)c1)-c1c(c(C(=O)N3CCOCC3(C)C)nn1-c1ccsc1)CO2 [Compound 202, (3,3-Dimethyl-morpholin-4-yl)-{7-methoxy-8-[1-(2-morpholin-4-yl-ethyl)-1H-pyrazol-4-yl]-1-thiophen-3-yl-1,4-dihydro-chromeno[4,3-c]pyrazol-3-yl}-methanone] | 100 to 1000 | 100 to 1000
COc1cc2c(cc1-c1cnn(CC3OCCO3)c1)-c1c(c(C(=O)N3CCOCC3(C)C)nn1-c1ccsc1)CO2 [Compound 209, (3,3-Dimethyl-morpholin-4-yl)-[8-(1-[1,3]dioxolan-2-ylmethyl-1H-pyrazol-4-yl)-7-methoxy-1-thiophen-3-yl-1,4-dihydro-chromeno[4,3-c]pyrazol-3-yl]-methanone] | < 100 | < 100
[2H]C([2H])([2H])N(CCN1CCOC1=O)C(=O)c1nn(-c2ccsc2)c2c1COc1cc(OC)c(CC(C)C)cc1-2 [Compound 214] | 1000 to 5000 | < 100
COc1cc2c(cc1-c1ccn(C)n1)-c1c(c(C(=O)N3CCOCC3C)nn1-c1ccsc1)CO2 (centres unmarked) [Compound 218] | 100 to 1000 | < 100

Second part, the compound after the results:

EC50 [1] [nM] | EC50 (FSHR) [nM] | SMILES
< 100 | < 100 | COCOCCn1cc(-c2cc3c(cc2OC)OCc2c(C(=O)N4CCOCC4(C)C)nn(-c4ccsc4)c2-3)cn1 [Compound 205, (3,3-Dimethyl-morpholin-4-yl)-{7-methoxy-8-[1-(2-methoxymethoxy-ethyl)-1H-pyrazol-4-yl]-1-thiophen-3-yl-1,4-dihydro-chromeno[4,3-c]pyrazol-3-yl}-methanone]
< 100 | < 100 | COCCCn1cc(-c2cc3c(cc2OC)OCc2c(C(=O)N4CCOCC4(C)C)nn(-c4ccsc4)c2-3)cn1 [Compound 208, (3,3-Dimethyl-morpholin-4-yl)-{7-methoxy-8-[1-(3-methoxy-propyl)-1H-pyrazol-4-yl]-1-thiophen-3-yl-1,4-dihydro-chromeno[4,3-c]pyrazol-3-yl}-methanone]
> 5000 | < 100 | CCn1cc(-c2cc3c(cc2OC)OCc2c(C(=O)N4CCOCC4(C)C)nn(-c4ccsc4)c2-3)cn1 [Compound 210, (3,3-Dimethyl-morpholin-4-yl)-[8-(1-ethyl-1H-pyrazol-4-yl)-7-methoxy-1-thiophen-3-yl-1,4-dihydro-chromeno[4,3-c]pyrazol-3-yl]-methanone]
< 100 | < 100 | CCCn1cc(-c2cc3c(cc2OC)OCc2c(C(=O)N4CCOCC4(C)C)nn(-c4ccsc4)c2-3)cn1 [Compound 211, (3,3-Dimethyl-morpholin-4-yl)-[7-methoxy-8-(1-propyl-1H-pyrazol-4-yl)-1-thiophen-3-yl-1,4-dihydro-chromeno[4,3-c]pyrazol-3-yl]-methanone]
100 to 1000 | < 100 | COc1cc2c(cc1-c1cnn(C3CC3)c1)-c1c(c(C(=O)N3CCOCC3(C)C)nn1-c1ccsc1)CO2 [Compound 215]
